Data: US4785008A, “N-substituted 2-amino-thiazoles, process for their preparation and their therapeutic application” (Laboratoires Chauvin-Blache, priority 1985, dated 1988)

Experiments:
[1] = test system: prostanoid pathways (thromboxane B2) in rabbit platelets; assay: Inhibition of the metabolism of [14C]arachidonate in rabbit platelets (disappearance of TXB2); assay type: cell-based; conditions: Oryctolagus cuniculus, Platelet
Method: 1.2--Inhibition of the metabolism of [^14 C]arachidonate in rabbit platelets
12 ml of blood are withdrawn nitracardially into ACD (anticoagulant consisting of an aqueous solution containing 0.27 g of citric acid, 0.5 g of disodium citrate and 0.02 g of glucose for 20 ml of water) in a proportion of 1 volume of ACD for 6 volumes of blood. The mixture is centrifuged (10 minutes, 200×g, 20° C.), and the supernatent (PRP) collected and centrifuged again (15 minutes, 1500×g, 20° C.). The platelet pellet is washed in buffer I [NaCl, 8 g/l; Tris, 1.21 g/l; KCl, 0.2 g/l; gelatin, 2.5 g/l; this mixture is heated to 90° C. to dissolve the gelatin, and then glucose, 1 g/l, and ethylene glycol bis(β-aminoethyl ether) N,N,N',N'-tetraacetic acid or EGTA, 0.075 g/l, are added]. The suspension is centrifuged (15 minutes, 1500×g, 20° C.) and the pellet taken up in buffer II (NaCl, 8 g/l; Tris, 1.21 g/l; KCl, 0.2 g/l; CaCl2, 0.145 g/l; MgCl2, 0.2 g/l; gelatin, 2.5 g/l; the mixture is brought to 90° C., glucose, 1 g/l, is added and the pH is adjusted to 7.4 with 0.1N HCl).
The platelet suspension (0.4 ml/tube) is preincubated for 10 minutes at 37° C., either with 10 μl of DMSO (control), or with varied concentrations of test compounds dissolved in 10 μl of DMSO.
The incubation is carried out in the presence of [^14 C]arachidonate (1 μg, 0.2 μCi) distributed in 0.1 ml of buffer II, and the incubation is then blocked after 15 minutes with 50 μl of citric acid and 250 μl of saturated NaCl.
After extraction with ethyl acetate, the metabolites of [^14 C]arachidonate are separated by thin layer chromatography and quantified using a radio-scanner.
The percentage inhibition of the prostanoid pathways is estimated by measuring the disappearance of thromboxane B2 (TXB2) in terms of the concentration of each compound.
Results corresponding to 50 μM and 100 μM of compounds of formula I are given by way of example in Table II.

[2] = test system: lipoxygenase of circulating human leukocytes (PMNs); assay: Inhibition of the lipoxygenase of circulating human leukocytes (PMNs), by radioimmunoassay of LTC4; assay type: cell-based; conditions: Leukocyte, 8 min, calcium ionophore A23187 (0.25 μM), 8 minutes at 37° C.
Method: 1.1--Inhibition of the lipoxygenase of circulating human leukocytes (PMNs), by radioimmunoassay of LTC4 Methods Heparinized human blood is sedimented for 1 hour at 37° C. in sterile saline solution containing 4.5% of Dextran T 500. The upper, leukocyte-rich phase, is collected, deposited on Ficoll-Paque (7:3 v/v) and then centrifuged (20 minutes, 400×g, 4° C.). The centrifugation pellet is treated with 0.75% strength NH4 Cl to lyse the red cells. After centrifugation (20 minutes, 400×g, 4° C.), supernatent is removed and the pellet is resuspended in Dulbecco's PBS buffer containing 1 mM calcium chloride. […] The incubation is blocked by adding one volume of ice-cold water, and the suspension is centrifuged (15 minutes, 1500×g, 4° C.). Aliquots of the supernatent are then subjected to radioimmunoassay (New England Nuclear Kit). The percentage inhibition of the 5-lipoxygenase pathway is measured in terms of the concentration of each compound. From these curves, the concentration which 50% inhibits LTC4 tracer formation (IC50) is deduced.

[3] = test system: protein influx into the anterior chamber of the eye; assay: Inhibition of protein influx into the anterior chamber of the eye after corneal paracentesis; assay type: in vivo, albino New Zealand rabbits; conditions: rabbit eye
Method: Anti-inflammatory activity measured by the inhibition of protein influx into the anterior chamber of the eye after corneal paracentesis. […] The effect of various concentrations of each compound is measured on 6 eyes of albino New Zealand rabbits.

[4] = Acute toxicity (LD50) in rats; conditions: rat, in vivo, 14 days of observation, with 5% confidence interval
Method: The rats used are of Wistar strain of average weight 150 g.
The LD50 is determined after 14 days of observation.
The results below give the LD50 values for the compound 3 of the invention, together with the 5% confidence interval.

[5] = test system: leukocyte infiltration into the aqueous humour; conditions: recent experimental studies; cited from earlier work

`Oc1ccccc1Nc1nccs1` [Compound 1] showed an inhibition at 50 µM [1] of 34%, an inhibition at 100 µM [1] of 91% and an IC50 [2] of 1200 nM.

With `Oc1ccc(Cl)cc1Nc1nccs1` [Compound 2] the inhibition at 50 µM [1] was 100%, the inhibition at 100 µM [1] was 100% and the IC50 [2] was 300 nM.

With `Cc1ccc(Nc2nccs2)c(O)c1.Cl` [Compound 3, 2-(2-hydroxy-4-methylphenyl)aminothiazole hydrochloride] the inhibition at 50 µM [1] was 100%, the inhibition at 100 µM [1] was 100% and the “Inhibition (%) of protein influx into the anterior chamber of the eye after corneal paracentesis” value (shortened to “Inhibition (%)”) ([3]; 0.1 mg/100 ml) was 20%. The “Inhibition (%)” value ([3]; 0.5 mg/100 ml) was 35%, the “Inhibition (%)” value ([3]; 1 mg/100 ml) was 50% and the LD50 at 336 h ([4]; iv, female rat) was 51 ± 2 mg/kg. The LD50 at 336 h ([4]; iv, male rat) was 51 ± 2 mg/kg, the LD50 at 336 h ([4]; po, female rat) was 2350 ± 90 mg/kg and the LD50 at 336 h ([4]; po, male rat) was 2950 ± 96 mg/kg. It also gave an IC50 [2] of 330 nM.

`Cc1ccc(O)c(Nc2nccs2)c1` [Compound 4] showed an inhibition at 50 µM [1] of 68% and an IC50 [2] of 250 nM.

With `CC(C)(C)c1ccc(Nc2nccs2)c(O)c1` [Compound 5] the inhibition at 50 µM [1] was 76% and the IC50 [2] was 1600 nM.

With `Cc1cc(C)c(O)c(Nc2nccs2)c1` [Compound 6] the inhibition at 50 µM [1] was 70% and the IC50 [2] was 200 nM.

For `Oc1cccnc1Nc1nccs1` [Compound 7], the inhibition at 50 µM [1] was 36% and the inhibition at 100 µM [1] was 36%.

In the case of `COc1ccc2c(c1)c(CC(=O)O)c(C)n2C(=O)c1ccc(Cl)cc1` [Indomethacin], the “leukocyte infiltration into the aqueous humour” value [5] is given as “increases the leukocyte infiltration into the aqueous humour”.
